Laboratory results: patent US20240138404A1, “DISPENSER AND METHOD OF USE THEREOF” (S.C. JOHNSON & SON, INC., priority 2019, published 2024)

Tests used:
[1] = Emanation (release) rate of active agent from three-layer substrate 250 by weight loss over 40 days (Example 1, FIG. 13); assay type: physicochemical; settings: substrate 250, approx. 30 cm^2, dosed with approx. 75 mg active agent
[2] = Emanation rate of transfluthrin from dispensing device 200 with substrate 250 in a sealed chamber over 75 days (Example 2, FIGS. 15A-15C); assay type: physicochemical; settings: for constant emanation rate: dose about 2400 mg
Description: In connection with the examples herein, the emanation rates and the amount of active agent, e.g., an amount of transfluthrin, remaining in the substrate of the examples herein were measured by analyzing the weight loss of a particular substrate over time. More particularly, the amount of active agent remaining within a particular substrate may be calculated by first measuring the substrate 250 prior to dosing the substrate 250 with the active agent (or volatile material) and then subtracting that value from the weight of the substrate 250 at any given time after dosing. For example, with reference to Example 1, an initial weight of the substrate 250 was measured, the substrate 250 was dosed with an active agent (i.e., transfluthrin or metofluthrin), and a weight of the substrate 250 was measured multiple times after initial dosage and after emanation of the active agent into the ambient environment. The initial weight of the substrate 250 was then subtracted from a weight of the substrate 250 after initial dosage and this value indicated the remaining active agent within the substrate 250. Further, after determining the remaining active agent within the substrate 250, the amount of active agent (or volatile material) emanated to the ambient environment may also be calculated by subtracting the amount of active agent remaining in the substrate 250 from the initial dosage amount of the active agent. All weight measurements can be performed on an analytical scale. Further, the examples herein were conducted in a closed environment, such as a sealed chamber, having a controlled airflow rate.
In this example, the substrate 250 includes three layers, such as the first layer 252, the second layer 254, and the third layer 256. Further, in this embodiment, the first layer 252 is a woven material having a honeycomb weave pattern, a pore size of 3 mm and a thickness of 0.3 mm; the second layer 254 is a fibrous material constructed from polyester and the substrate 250 has a surface density of about 340 g/m^2; and the third layer 256 is a woven material having a honeycomb weave pattern, a pore size of 3 mm and a thickness of 0.3 mm. The substrate 250 was dosed with about 2400 mg of transfluthrin and the concentration of the transfluthrin within the substrate 250 at different locations in a sealed chamber was measured over a period of 75 days. During this trial, the substrate 250 was exposed to an airflow of about 4.8 meters/minute.

[3] = first location within sealed chamber (FIG. 15A)
[4] = second location within sealed chamber (FIG. 15B)
[5] = third location within sealed chamber (FIG. 15C)

SMILES | constant linear release (emanation) rate [1] | time over which the substrate emanated the volatile material at constant linear rate [1] | period of emanation at constant, linear rate, from linear regression lines ([2]; extrapolated from the linear regression lines of FIGS. 15A-15C) | period of constant emanation [2, 3] | constant emanation rate [2, 3] | period of constant emanation [2, 4] | constant emanation rate [2, 4] | period of constant emanation [2, 5] | constant emanation rate [2, 5]
C/C=C/C1C(C(=O)OCc2c(F)c(F)c(COC)c(F)c2F)C1(C)C (centres unmarked) [metofluthrin] | about 1.9 mg/day | 20 days |  |  |  |  |  |  | 
CC1(C)[C@H](C=C(Cl)Cl)[C@H]1C(=O)OCc1c(F)c(F)cc(F)c1F [transfluthrin] | about 1.5 mg/day | approximately 36 days | exceeding one year | greater than 70 days | about 4 mg/day | greater than 70 days | about 6 mg/day | greater than 70 days | about 4 mg/day
